Experimental data as given in US12714718B2, “Treatment of 22Q11.2 deletion syndrome with cannabidiol” (priority 2018, dated 2026).

Tests used:
[1] = test system: children and adolescents with 22q11.2 Deletion Syndrome; assay: Aberrant Behavior Checklist-Community (ABC-C), open-label ZYN002 study; type: in vivo, human; details: Week 6 and Week 14
Text: Aberrant Behavior Checklist-Community (ABC-C): The Aberrant Behavior Checklist-Community, 2nd Edition, was completed by the parent/caregiver, with support from the site staff. The ABC-C asks responders to rate behaviors from “0—not at all a problem” to “3—the problem is severe in degree” across 58 questions.
Each application consisted of one sachet of ZYN002 CBD 4.2% concentration, containing 2.98 g of gel. […]

[2] = test system: children and adolescents with 22q11.2 Deletion Syndrome; assay: Anxiety, Depression, and Mood Scale (ADAMS), open-label ZYN002 study; type: in vivo, human; details: Week 6 and Week 14
Protocol: (§1) Methodology: This was an open-label study to assess the safety, tolerability and efficacy of CBD administered as ZYN002, a transdermal gel, for the treatment of child and adolescent patients with 22q11.2 deletion syndrome. Male and female patients with 22q11.2 deletion syndrome were treated in Period 1 for 14 weeks with 250 mg and 500 mg of CBD (patients ≤35 kg received 250 mg CBD daily; patients >35 kg received 500 mg CBD daily). For patients with less than a 25% improvement from baseline in the ABC-C irritability subscale, the investigator could increase the total daily dose at Week 6 of treatment. Twenty male and female patients, ages 6 to <18 years, received ZYN002.
Anxiety, Depression, and Mood Scale (ADAMS): The Anxiety, Depression, and Mood Scale was completed by the parent/caregiver, with support from the site staff. The ADAMS was used as a comprehensive assessment of anxiety, depression, and mood among the patients. […]
(§2) Statistical Methods: Descriptive statistics (mean, median, standard deviation, minimum, and maximum) for continuous data and number (n) and percentage (%) for categorical data were determined for all efficacy and safety parameters.

[3] = test system: children and adolescents with 22q11.2 Deletion Syndrome; assay: Clinical Global Impression-Improvement (CGI-I), open-label ZYN002 study; type: in vivo, human
Protocol: as §1
Clinical Global Impressions Scale-Improvement: The Clinical Global Impression Scale, Improvement (CGI-I), is commonly used in clinical trials as they allow the clinician to utilize the history from the caregiver and incorporate the score into a clinical rating for the severity of symptoms. CGI-I is a 7-point scale that is used to assess how much the patient's behavioral symptoms associated with 22q11.2 deletion syndrome have improved, or worsened, relative to a baseline assessment at the beginning of the treatment.
Each application consisted of one sachet of ZYN002 CBD 4.2% concentration, containing 2.98 g of gel. At Week 6, if the patient had less than a 25% improvement from baseline in the ABC-C irritability subscale, the investigator increased the dose as follows: • Patients who weigh ≤35 kg receiving a total daily dose of 250 mg CBD had their daily dose increased to 500 mg. Each application consisted of two sachets of ZYN002 CBD 4.2% concentration, containing 2.98 g of gel. • Patients >35 kg received 250 mg CBD applied Q12H (±2 hours); total daily dose of 500 mg CBD. […]
as §2

[4] = test system: children and adolescents with 22q11.2 Deletion Syndrome; assay: Pediatric Anxiety Rating Scale (PARS), open-label ZYN002 study; type: in vivo, human; details: Week 14
Protocol: as §1
Pediatric Anxiety Rating Scale (PARS): The PARS is a clinician-rated caregiver interview that covers 61 behaviors related to anxiety (Riddle M A, et al, The Pediatric Anxiety Rating Scale (PARS) Development and Psychometric Properties, J. Am. Acad. Child Adolesc. Psychiatry, 2002, 4(9):1061-1069). The PARS provides broad coverage of separation anxiety, social phobia, and generalized anxiety. […] The interviewer assesses the severity by quantifying the frequency and degree of interference and avoidance in family, school and community settings. Each of seven severity items is scored on a scale of 1 to 5, with 5 being the most severe and frequent. […]

[5] = test system: children and adolescents with 22q11.2 Deletion Syndrome; assay: Safety and tolerability monitoring, open-label ZYN002 study; type: in vivo, human; details: up to 14 weeks
Protocol: as §1
Safety Monitoring: Patient safety was monitored at each study visit using standard measures, including physical and neurological exams, examination of skin at application sites for irritation, vital signs, 12-lead ECGs, the C-SSRS, safety laboratory tests, and AE monitoring.
Each application consisted of one sachet of ZYN002 CBD 4.2% concentration, containing 2.98 g of gel. At Week 6, if the patient had less than a 25% improvement from baseline in the ABC-C irritability subscale, the investigator increased the dose as follows: • Patients who weigh ≤35 kg receiving a total daily dose of 250 mg CBD had their daily dose increased to 500 mg. […]

[6] = cited from earlier work
[7] = test system: adults with social phobia; details: crossover trial; cited from earlier work
children and adults = details: in vivo; cited from earlier work

C=C(C)C1CCC(C)=CC1c1c(O)cc(CCCCC)cc1O (stereo not shown) [CBD, 2-[3-methyl-6-(1-methylethenyl)-2-cyclohexen-1-yl]-5-pentyl-1,3-benzenediol]
ABC-C all five subscales vs baseline, in words [1]: statistically and clinically meaningful improvements | ADAMS total score and all five subscales vs baseline, in words [2]: statistically significant improvements | patients being much improved or very much improved (CGI-I) [3]: 62.5% | patients rated by clinicians as improved, much-improved or very much improved (CGI-I) [3]: Seventy-five | CGI-I, majority of patients, in words ([3]; Week 6 and Week 14): clinically meaningful improvements | PARS vs baseline, in words [4]: statistically significant improvements | tolerability of transdermal administration [5]: well tolerated | solubility in water, in words [6]: virtually insoluble in water | physiological and cognitive indicators of anxiety [7]: significant and clinically meaningful reductions | tolerability in children and adults (children and adults): generally well tolerated
